{"source": "ChEMBL document CHEMBL1135394", "about": "“Improvement in the selectivity and metabolic stability of the serotonin 5-HT(1A) ligand, S 15535: a series of cis- and trans-2-(arylcycloalkylamine) 1-indanols” (J Med Chem, 2002)", "key": {"[1]": {"biological_target": "T1, 5-hydroxytryptamine receptor 1A (Rattus norvegicus) (UniProt P19327)", "T1 sequence (whole entry)": "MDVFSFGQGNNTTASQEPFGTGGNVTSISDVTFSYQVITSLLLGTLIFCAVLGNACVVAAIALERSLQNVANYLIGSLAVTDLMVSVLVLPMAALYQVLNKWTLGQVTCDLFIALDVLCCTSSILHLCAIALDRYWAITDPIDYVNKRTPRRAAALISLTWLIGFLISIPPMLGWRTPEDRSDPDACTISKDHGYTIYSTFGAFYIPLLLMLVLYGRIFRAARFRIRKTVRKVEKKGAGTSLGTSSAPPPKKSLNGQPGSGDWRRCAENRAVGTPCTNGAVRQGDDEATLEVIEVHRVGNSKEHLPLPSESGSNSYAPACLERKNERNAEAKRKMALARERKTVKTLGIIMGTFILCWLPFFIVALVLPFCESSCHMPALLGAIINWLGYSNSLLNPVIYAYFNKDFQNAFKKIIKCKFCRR", "assay": "Antagonistic activity at postsynaptic 5-hydroxytryptamine 1A receptor was measured by its ability to inhibit hypothermia elicited by s.c. administration of 8-OH-DPAT in rat;ranges from (0.45-4.51)", "assay_type": "functional, organism-based"}, "[2]": {"assay": "Selectivity ratio towards Alpha-1 adrenergic receptor to human 5-hydroxytryptamine 1A receptor"}, "[3]": {"biological_target": "T1, 5-hydroxytryptamine receptor 1A (Rattus norvegicus)", "assay": "Antagonistic activity at postsynaptic 5-hydroxytryptamine 1A receptor was measured by its ability to inhibit hypothermia elicited by s.c. administration of 8-OH-DPAT in rat;ranges from (0.20-1.60)", "assay_type": "functional, organism-based"}, "[4]": {"biological_target": "T2, Adrenergic receptor alpha-1 (Rattus norvegicus, UniProt P15823+P23944+P43140)", "T2 sequence (P15823 whole entry)": "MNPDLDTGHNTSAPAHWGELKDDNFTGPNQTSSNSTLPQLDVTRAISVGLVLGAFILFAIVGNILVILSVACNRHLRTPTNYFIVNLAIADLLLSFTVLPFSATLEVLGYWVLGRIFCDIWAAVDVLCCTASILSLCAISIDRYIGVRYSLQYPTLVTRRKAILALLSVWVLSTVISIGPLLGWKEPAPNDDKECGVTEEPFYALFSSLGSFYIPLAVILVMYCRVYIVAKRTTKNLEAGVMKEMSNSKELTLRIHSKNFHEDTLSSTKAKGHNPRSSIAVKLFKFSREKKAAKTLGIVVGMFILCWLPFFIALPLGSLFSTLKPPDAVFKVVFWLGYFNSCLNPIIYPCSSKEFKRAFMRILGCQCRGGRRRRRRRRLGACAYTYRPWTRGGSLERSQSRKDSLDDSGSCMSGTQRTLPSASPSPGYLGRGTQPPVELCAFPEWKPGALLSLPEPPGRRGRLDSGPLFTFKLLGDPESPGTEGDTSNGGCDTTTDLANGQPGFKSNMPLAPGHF", "T2 sequence (P23944 whole entry)": "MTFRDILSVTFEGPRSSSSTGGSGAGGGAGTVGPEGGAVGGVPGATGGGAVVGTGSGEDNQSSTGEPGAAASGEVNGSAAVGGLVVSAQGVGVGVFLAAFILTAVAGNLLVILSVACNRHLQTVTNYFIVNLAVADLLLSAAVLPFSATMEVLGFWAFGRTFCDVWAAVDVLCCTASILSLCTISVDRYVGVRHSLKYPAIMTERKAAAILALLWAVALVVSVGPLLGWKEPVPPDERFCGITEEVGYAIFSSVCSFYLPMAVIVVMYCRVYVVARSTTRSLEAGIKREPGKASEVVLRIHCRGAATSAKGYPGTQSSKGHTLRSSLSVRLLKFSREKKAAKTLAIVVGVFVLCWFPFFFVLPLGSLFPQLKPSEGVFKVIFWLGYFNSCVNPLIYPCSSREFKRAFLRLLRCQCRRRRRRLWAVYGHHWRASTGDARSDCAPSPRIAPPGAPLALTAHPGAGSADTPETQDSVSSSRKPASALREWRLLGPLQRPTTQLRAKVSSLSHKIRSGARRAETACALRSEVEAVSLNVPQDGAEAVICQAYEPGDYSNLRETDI", "T2 sequence (P43140 whole entry)": "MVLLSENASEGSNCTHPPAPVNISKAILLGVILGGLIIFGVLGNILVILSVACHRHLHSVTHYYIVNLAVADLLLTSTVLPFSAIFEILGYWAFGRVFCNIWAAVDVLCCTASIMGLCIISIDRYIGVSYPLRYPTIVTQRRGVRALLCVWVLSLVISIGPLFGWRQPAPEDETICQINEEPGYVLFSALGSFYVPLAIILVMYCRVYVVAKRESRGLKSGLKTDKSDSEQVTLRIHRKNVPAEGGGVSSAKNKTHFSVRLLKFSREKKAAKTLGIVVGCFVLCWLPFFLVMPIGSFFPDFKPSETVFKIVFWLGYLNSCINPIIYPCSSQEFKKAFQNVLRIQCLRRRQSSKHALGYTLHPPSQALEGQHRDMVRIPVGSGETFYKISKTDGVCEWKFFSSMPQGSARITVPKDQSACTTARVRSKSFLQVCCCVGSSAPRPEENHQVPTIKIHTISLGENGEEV", "assay": "Binding affinity at Alpha-1 adrenergic receptor by inhibition of [3H]-prazosin binding to rat cortex"}, "[5]": {"assay": "In vitro oral metabolic bioavailability after incubation with hepatic microsomes", "assay_type": "ADME, Liver", "conditions": "read-out: MF"}, "[6]": {"biological_target": "T3, 5-hydroxytryptamine receptor 1A (Homo sapiens, UniProt P08908)", "T3 sequence (P08908 whole entry)": "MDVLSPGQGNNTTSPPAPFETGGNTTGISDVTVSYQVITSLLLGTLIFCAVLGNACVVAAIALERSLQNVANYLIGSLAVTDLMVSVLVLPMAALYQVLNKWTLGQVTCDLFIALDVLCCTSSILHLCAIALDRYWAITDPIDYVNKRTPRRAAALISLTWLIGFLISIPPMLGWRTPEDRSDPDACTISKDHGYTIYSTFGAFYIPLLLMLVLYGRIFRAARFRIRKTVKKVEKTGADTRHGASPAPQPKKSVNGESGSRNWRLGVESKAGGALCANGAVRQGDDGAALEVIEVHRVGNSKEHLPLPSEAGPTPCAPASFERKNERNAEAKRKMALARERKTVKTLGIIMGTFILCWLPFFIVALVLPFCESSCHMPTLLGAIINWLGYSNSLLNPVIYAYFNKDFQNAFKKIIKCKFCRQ", "assay": "Binding affinity at human 5-hydroxytryptamine 1A receptor by inhibition of [3H]8-OH-DPAT binding in Chinese hamster ovary cell line", "assay_type": "cell-based"}, "[7]": {"biological_target": "T1, 5-hydroxytryptamine receptor 1A (Rattus norvegicus)", "assay": "Antagonistic activity at postsynaptic 5-hydroxytryptamine 1A receptor was measured by its ability to inhibit hypothermia elicited by s.c. administration of 8-OH-DPAT in rat;ranges is not computable", "assay_type": "functional, organism-based"}, "[8]": {"biological_target": "T1, 5-hydroxytryptamine receptor 1A (Rattus norvegicus)", "assay": "Antagonistic activity at postsynaptic 5-hydroxytryptamine 1A receptor was measured by its ability to inhibit hypothermia elicited by s.c. administration of 8-OH-DPAT in rat;ranges from (0.20-1.80)", "assay_type": "functional, organism-based"}, "[9]": {"biological_target": "T1, 5-hydroxytryptamine receptor 1A (Rattus norvegicus)", "assay": "Antagonistic activity at postsynaptic 5-hydroxytryptamine 1A receptor was measured by its ability to inhibit hypothermia elicited by s.c. administration of 8-OH-DPAT in rat;ranges from (2.20-30.5)", "assay_type": "functional, organism-based"}, "[10]": {"biological_target": "T1, 5-hydroxytryptamine receptor 1A (Rattus norvegicus)", "assay": "Antagonistic activity at postsynaptic 5-hydroxytryptamine 1A receptor was measured by its ability to inhibit hypothermia elicited by s.c. administration of 8-OH-DPAT in rat;ranges from (0.40-4)", "assay_type": "functional, organism-based"}, "[11]": {"biological_target": "T1, 5-hydroxytryptamine receptor 1A (Rattus norvegicus)", "assay": "Antagonistic activity at postsynaptic 5-hydroxytryptamine 1A receptor was measured by its ability to inhibit hypothermia elicited by s.c. administration of 8-OH-DPAT in rat;ranges from (0.50-5.30)", "assay_type": "functional, organism-based"}, "[12]": {"biological_target": "T1, 5-hydroxytryptamine receptor 1A (Rattus norvegicus)", "assay": "Antagonistic activity at postsynaptic 5-HT1A receptor was measured by its ability to inhibit hypothermia elicited by s.c. administration of 8-OH-DPAT in rat;ranges from (.26-3.52)", "assay_type": "functional, organism-based"}, "[13]": {"biological_target": "T4, 5-hydroxytryptamine receptor 1A (Homo sapiens) (UniProt P08908)", "T4 sequence (whole entry)": "T3 sequence (P08908 whole entry)", "assay": "Agonist efficacy of [35S]GTP-gamma-S, binding to 5-hydroxytryptamine 1A receptor compared with 5-HT", "assay_type": "functional"}, "[14]": {"biological_target": "T1, 5-hydroxytryptamine receptor 1A (Rattus norvegicus)"}}}
{"compound": "O[C@@H]1c2ccc(F)cc2C[C@H]1N1CCN(c2cccc3c2OCCO3)CC1", "note": "(racemic)", "values": [{"measurement": "ID50", "setting": "[1]", "result": 1.42, "unit": "mg/kg"}, {"measurement": "Ratio", "setting": "[2]", "result": 562}]}
{"compound": "O[C@@H]1c2ccccc2C[C@H]1N1CCC(c2cccc3c2OCCO3)CC1", "note": "(relative stereo)", "values": [{"measurement": "ID50", "setting": "[3]", "result": 0.5, "unit": "mg/kg"}, {"measurement": "Log Ki", "setting": "[4]", "result": -7.1}, {"measurement": "Fh", "setting": "[5]", "result": 7, "unit": "%"}, {"measurement": "Ki", "setting": "[6]", "result": 0.708, "unit": "nM"}, {"measurement": "Ratio", "setting": "[2]", "result": 112}]}
{"compound": "O[C@@H]1c2cc(F)c(F)cc2C[C@H]1N1CCN(c2cccc3c2OCCO3)CC1", "note": "(relative stereo)", "values": [{"measurement": "ID50", "setting": "[7]", "result": 2.5, "unit": "mg/kg"}, {"measurement": "Log Ki", "setting": "[4]", "result": -6.15}, {"measurement": "Fh", "setting": "[5]", "result": 51, "unit": "%"}, {"measurement": "Ki", "setting": "[6]", "result": 2.14, "unit": "nM"}, {"measurement": "Ratio", "setting": "[2]", "result": 332}]}
{"compound": "COc1ccc2c(c1)[C@@H](O)[C@H](N1CCC(c3cccc4c3OCCO4)CC1)C2", "note": "(relative stereo)", "values": [{"measurement": "Log Ki", "setting": "[4]", "result": -7.22}, {"measurement": "Ki", "setting": "[6]", "result": 1.1, "unit": "nM"}, {"measurement": "ID50", "setting": "[8]", "result": 0.6, "unit": "mg/kg"}, {"measurement": "Ratio", "setting": "[2]", "result": 55}]}
{"compound": "O=[N+]([O-])c1ccc2c(c1)[C@@H](O)[C@H](N1CCC(c3cccc4c3OCCO4)CC1)C2", "note": "(relative stereo)", "values": [{"measurement": "Log Ki", "setting": "[4]", "result": -6.95}, {"measurement": "Fh", "setting": "[5]", "result": 22, "unit": "%"}, {"measurement": "Ki", "setting": "[6]", "result": 0.288, "unit": "nM"}, {"measurement": "Ratio", "setting": "[2]", "result": 389}, {"measurement": "ID50", "setting": "[9]", "result": 8.1, "unit": "mg/kg"}]}
{"compound": "O[C@@H]1c2ccccc2C[C@H]1N1CC=C(c2cccc3c2OCCO3)CC1", "note": "(relative stereo)", "values": [{"measurement": "Log Ki", "setting": "[4]", "result": -7}, {"measurement": "Fh", "setting": "[5]", "result": 4, "unit": "%"}, {"measurement": "Ki", "setting": "[6]", "result": 0.832, "unit": "nM"}, {"measurement": "ID50", "setting": "[10]", "result": 1.3, "unit": "mg/kg"}, {"measurement": "Ratio", "setting": "[2]", "result": 120}]}
{"compound": "O[C@@H]1c2ccc(F)cc2C[C@H]1N1CC=C(c2cccc3c2OCCO3)CC1", "note": "(relative stereo)", "values": [{"measurement": "ID50", "setting": "[11]", "result": 1.7, "unit": "mg/kg"}, {"measurement": "Log Ki", "setting": "[4]", "result": -6.96}, {"measurement": "Fh", "setting": "[5]", "result": 8, "unit": "%"}, {"measurement": "Ki", "setting": "[6]", "result": 0.851, "unit": "nM"}, {"measurement": "Ratio", "setting": "[2]", "result": 128}]}
{"compound": "O[C@@H]1c2ccccc2C[C@H]1N1CCN(c2cccc3c2OCCO3)CC1", "note": "(relative stereo)", "values": [{"measurement": "Log Ki", "setting": "[4]", "result": -6.03}, {"measurement": "Fh", "setting": "[5]", "result": 21, "unit": "%"}, {"measurement": "Ki", "setting": "[6]", "result": 1.62, "unit": "nM"}, {"measurement": "ID50", "setting": "[12]", "result": 0.96, "unit": "mg/kg"}, {"measurement": "Efficacy", "setting": "[13]", "result": 52, "unit": "%"}, {"measurement": "Ratio", "setting": "[2]", "result": 575}]}
{"compound": "COc1ccc2c(c1)C[C@@H](N1CCN(c3cccc4c3OCCO4)CC1)[C@@H]2O", "note": "(racemic)", "values": [{"measurement": "Efficacy", "setting": "[13]", "result": 21, "unit": "%"}, {"measurement": "ID50", "setting": "[14]", "result": 0.72, "unit": "mg/kg"}, {"measurement": "Ratio", "setting": "[2]", "result": 224}]}
